Reference: patent US11091428B2 (HAPLOGEN GMBH, priority 2016, dated 2021)
Read-outs that look alike come from different tables or passages of the source.

How the values were obtained:
PLA2G16 = target: T1, PLA2G16 (Homo sapiens, UniProt P53816); assay: Enzyme activity assay for PLA2G16 (Red/Green BODIPY PC-A2 fluorescence); format: biochemical; conditions: His-tagged PLA2G16, 4 min pre-incubation, 2 nM to 50 μM; read-out: IC50 values of the compounds determined in the enzyme activity assay for PLA2G16
T1 construct: Hexa-His (N); made in house; host or cells: E. coli BL21(DE3)
T1 sequence (P53816 1-162): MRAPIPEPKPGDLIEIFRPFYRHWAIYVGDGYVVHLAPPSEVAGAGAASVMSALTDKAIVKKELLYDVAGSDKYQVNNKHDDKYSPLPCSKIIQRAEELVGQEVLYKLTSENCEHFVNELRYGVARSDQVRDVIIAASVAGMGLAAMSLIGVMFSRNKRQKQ
Source text: A cDNA for PLA2G16(NM_007069) was custom-synthesized by Genscript (Piscataway, USA) and inserted into a pET-based bacterial expression vector [Moffatt, B. A. and Studier, F. W. (1986) J. Mol. Biol. 189, 113-130; Rosenberg, A. H., Lade, B. N., Chui, D., Lin, S., Dunn, J. J., and Studier, F. W. (1987) Gene 56, 125-135], enabling the expression of N-terminally Hexa-His-tagged PLA2G16. E. coli BL21(DE3) (Agilent) were transformed with pET-His-PLA2G16according to the manufacturer's instructions and plated on Carbenicillin-containing agar plates (final concentration: 100 μg/mL). A single clone was in occulated in 100 mL LB medium supplemented with 100 μg/mL Carbenicillin and the in occulated culture was grown at 37° C. overnight in a rotary shaker. On the next day, the bacterial culture was diluted in LB medium supplemented with 100 μg/mL Carbenicillin (30 mL overnight culture in 800 mL total culture volume). Bacteria were grown at 37° C. until the OD600 reached 0.6. Gene expression was induced by addition of 1 mM isopropyl-β-D-thiogalactopyranosid (IPTG) for 2 h at 18° C. Subsequently, bacteria were harvested by centrifugation (15 min; 10,000×g; 4° C.) and frozen at −80° C. The bacterial pellet was resuspended in Buffer A (50 mM Tris/HCl pH 7.5, 500 mM NaCl, 5% glycerol, 5 mM β-Mercaptoethanol and 1 mM PMSF) and lysed by addition of 1 mg/mL lysozyme (Sigma Aldrich) and 100 μg/mL DNasel-(Roche). The sample was incubated at 30° C. for 30 min to allow lysis to occur. Then, the lysate was cleared by centrifugation (15,000×g, 15 min, 4° C.) and incubated with 1.5 mL Ni-NTA agarose suspension (Qiagen) for 60 min at 4° C. The Ni-NTA agarose was washed with 10 mL Buffer A. Bound protein was eluted by applying a manual gradient of Buffer A supplemented with increasing concentrations of imidazole (Sigma Aldrich; 25/50/75/100/250 mM). Purified fractions were analyzed by SDS-PAGE followed by Coomassie staining to assess the purity.
Activity of the protein was assessed as follows: Red/Green BODIPY® PC-A2 (Invitrogen, 1 mM in DMSO) was mixed with equal volumes of 1,2-Dioleoyl-sn-glycero-3-phosphocholine (DOPC; Sigma Aldrich, 10 mM in Ethanol) and 1,2-Dioleoyl-sn-glycero-3-phospho-rac-(1-glycerol) (DOPG; Sigma Aldrich, 10 mM in Ethanol) and 0.5 volumes of Cholesterol (CHOL; Sigma Aldrich, 10 mM in Ethanol) and vortexed for 5 s. The mixture (Red/Green BODIPY® PC-A2/DOPC/DOPG/CHOL) was diluted 1:91.4 in activity assay buffer (50 mM Tris/HCl pH 8.5, 100 mM NaCl) using a small-orifice pipette tip under constant vortexing. In the following, this preparation will be referred to as the “substrate solution”.
In order to evaluate their inhibitory potential, compounds were dissolved at 10 mM concentration in DMSO and directly spotted into assay plates (Corning, Cat. No. 3576) using acoustic liquid transfer (Labcyte Echo 525). Each compound was spotted at increasing concentrations, ranging from 2 nM to 50 μM (concentration in the final assay volume). 50 μl of PLA2G16 enzyme solution (diluted in activity buffer, supplemented with 5 mM L-Glutathione; Sigma Aldrich) was pre-incubated with compounds for 4 min., followed by addition of 50 μl of substrate solution. Fluorescence was recorded immediately after substrate addition for a total time of 10 min. using a SpectraMax M5 multimode reader (Excitation wavelength: 480 nm, emission wavelength: 530 nm). The relative increase of fluorescence over time is referred to as the enzyme activity. Half-maximal inhibitory concentrations (IC50) were derived by non-linear regression analysis using the drc package in R (R Development. Core Team, 2005).

[1] = test system: picornaviruses (CVB1, HRV-A2, HRV-A23, EV-68); assay: Anti-picornavirus cytopathic effect (CPE) reduction assay on HeLa H1 cells; format: cell-based; conditions: Enterovirus B, HeLa H1, 48 h
Description: The antiviral activity of selected compounds was tested using a cytopathic effect (CPE) reduction assay on HeLa H1 cells (ATCC CRL-1958). Briefly, cells were seeded in 96-well dishes (2×10^4 cells/well) in DMEM medium (Life technologies) supplemented with 10% FBS and PenStrep solution (100 U/mL Penicillin and 100 μg/mL streptomycin) and incubated at 37° C., 5% CO2 ovemight. The next day, cells were pre-treated with serial dilutions of the compound in DMEM medium supplemented with 2% FBS and PenStrep for 2 h at 37° C., 5% CO2. Next, cells were infected with virus (CVB1, HRV-A2, HRV-A23, EV-68) at an multiplicity of infection (MOI) which results in a complete virus-induced CPE within 2 days in control wells (infected and vehicle-treated). After 48 h, supematants were aspirated and 50 μl/well of CellTiterBlue reagent (Promega) diluted 1:5 in DMEM+2% FBS, was added to the cells. Plates were returned to the incubator and allowed to develop for 1.5 h. After that, plates were equilibrated to RT and subsequently, fluorescence was recorded (Excitation wavelength: 560 nm; emission wavelength: 590 nm) using a SpectraMax M5 multimode plate reader. Viability of cells was calculated according to the formula: V=(RFUCpd−RFUVeh/(RFUM−RFUVeh), where RFUCpd refers to infected and compound-treated cells, RFUVeh to infected and vehicle-treated cells and RFUM to uninfected and vehicle treated cells. Half-maximal effective concentrations (EC50) were calculated by non-linear regression analysis using the drc package in R (R Development. Core Team, 2005). EC50 categories as presented in Table 2 were calculated by averaging the EC50 values from four picornaviruses (CVB1, HRV-A2, HRV-A23, EV68).

[2] = HeLa H1 cells, 48 h, category from averaging the EC50 values from four picornaviruses (CVB1, HRV-A2, HRV-A23, EV68), read-out: EC50 values of the compounds determined in the anti-picornavirus assay
[3] = read-out: EC50 values of the compounds determined in the anti-picornavirus assay, HeLa H1 cells, 48 h, category from averaging the EC50 values from four picornaviruses (CVB1, HRV-A2, HRV-A23, EV68)

| Structure (SMILES) | IC50 (PLA2G16) | EC50 [1, 2] | EC50 [1, 3] |
| --- | --- | --- | --- |
| Cc1ccccc1C(=O)NC(C)C(=O)C(=O)NCC1CC1 (stereo not shown) [FP 156, N-(Cyclopropylmethyl)-3-[(2-methylphenyl)formamido]-2-oxobutanamide] | < 1000 nM | 1000 to 10000 nM |  |
| COc1ccccc1N(C=O)C(C)C(=O)C(=O)NCc1ccc(F)c(Cl)c1 (stereo not shown) [FP 93, N-[(3-Chloro-4-fluorophenyl)methyl]-3-[A (2-methoxyphenyl)formamido]-2-oxobutanamide] | < 1000 nM | < 1000 nM |  |
| CNC(=O)C(=O)C(CC(C)C)N(C=O)Cc1ccccc1 (stereo not shown) [FP 195, 3-(N-Benzylformamido)-N,5-dimethyl-2-oxohexanamide] | < 1000 nM | 1000 to 10000 nM |  |
| CC(=O)NCCOCCOCCNC(=O)C(=O)C1CCC(=O)N1Cc1ccc(Cl)cc1 (stereo not shown) [FP 327, 2-{1-[(4-Chlorophenyl)methyl]-5-oxopyrrolidin-2-yl}-N-{2-[2-(2-acetamidoethoxy)-ethoxy]ethyl}-2-oxoacetamide] | 1000 to 10000 nM | > 10000 nM |  |
| CCOCCOCCNC(=O)C(=O)[C@H]1CCC(=O)N1Cc1ccccc1 [FP 302, 2-[(2R)-1-Benzyl-5-oxopyrrolidin-2-yl]-N-[2-(2-ethoxyethoxy)ethyl]-2-oxoacetamide] | < 1000 nM | 1000 to 10000 nM |  |
| CC(NC(=O)c1ccccc1)C(=O)C(=O)NCC1CCC1 (stereo not shown) [FP 181, N-(Cyclobutylmethyl)-2-oxo-3-(phenylformamido)butanamide] | < 1000 nM | 1000 to 10000 nM |  |
| CCCC(C(=O)C(=O)NCC1CC1)N(C=O)CC1CCOCC1 (stereo not shown) [FP 58, N-(Cyclopropylmethyl)-3-{N-[(oxan-4-yl)methyl]formamido}-2-oxohexanamide] | < 1000 nM | 1000 to 10000 nM |  |
| CC1(C)CC(=O)N(Cc2ccccc2)C1C(=O)C(=O)NC1CC1 (stereo not shown) [FP 349, 2-(1-Benzyl-3,3-dimethyl-5-oxopyrrolidin-2-yl)-N-cyclopropyl-2-oxoacetamide] | < 1000 nM | 1000 to 10000 nM |  |
| O=C(NCCNC(=O)C1CCC1)C(=O)[C@H]1CCC(=O)N1Cc1ccccc1 [FP 332, 2-[(2R)-1-Benzyl-5-oxopyrrolidin-2-yl]-N-[2-(cyclobutylformamido)ethyl]-2-oxoacetamide] | < 1000 nM | 1000 to 10000 nM |  |
| CC(C(=O)C(=O)NCc1cccc(Cl)c1)N(C=O)CC1CCCCC1 (stereo not shown) [FP 18, N-[(3-Chlorophenyl)methyl]-3-[N-(cyclohexylmethyl)formamido]-2-oxobutanamide] | < 1000 nM | < 1000 nM |  |
| C[C@@H]1CC(=O)N(Cc2ccccc2)[C@@H]1C(=O)C(=O)NCC1CC1 (single isomer, unassigned) [FP 335] | < 1000 nM | 1000 to 10000 nM |  |
| CC(=O)N1CCC(CN(C=O)C(C)C(=O)C(=O)NCC2CCCCC2)CC1 (stereo not shown) [FP 79, 3-{N-[(1-Acetylpiperidin-4-yl)methyl]formamido}-N-(cyclohexylmethyl)-2-oxobutanamide] | 1000 to 10000 nM | > 10000 nM |  |
| CC(C(=O)C(=O)NCC1CC1)N(C)S(=O)(=O)c1ccccc1 (stereo not shown) [FP 221, N-(Cyclopropylmethyl)-3-(N-methylbenzenesulfonamido)-2-oxobutanamide] | < 1000 nM | > 10000 nM |  |
| CCNC(=O)C(=O)[C@H]1CCC(=O)N1Cc1ccc(Cl)cc1 [FP 285, 2-[(2R)-1-[(4-Chlorophenyl)methyl]-5-oxopyrrolidin-2-yl]-N-ethyl-2-oxoacetamide] | < 1000 nM | < 1000 nM |  |
| CCCC(NC(=O)c1ccccc1)C(=O)C(=O)NCC1CC1 (stereo not shown) [FP 154, N-(Cyclopropylmethyl)-2-oxo-3-(phenylformamido)hexanamide] | < 1000 nM | 1000 to 10000 nM |  |
| CC(C)(O)CNC(=O)C(=O)C1CCC(=O)N1Cc1ccc(Cl)cc1 (stereo not shown) [FP 274, 2-{1-[(4-Chlorophenyl)methyl]-5-oxopyrrolidin-2-yl}-N-(2-hydroxy-2-methylpropyl)-2-oxoacetamide] | < 1000 nM | 1000 to 10000 nM |  |
| COc1ccccc1C(=O)NC(C)C(=O)C(=O)NCC1CC1 (stereo not shown) [FP 168, N-(Cyclopropylmethyl)-3-[(2-methoxyphenyl)formamido]-2-oxobutanamide] | < 1000 nM | 1000 to 10000 nM |  |
| CC(OCC1CCCCC1)C(=O)C(=O)NCC1CC1 (stereo not shown) [FP 123, 3-(Cyclohexylmethoxy)-N-(cyclopropylmethyl)-2-oxobutanamide] |  |  | 1000 to 10000 nM |
| O=C(NCC1CC1)C(=O)[C@@H]1CCC(=O)N1Cc1ccccc1 [FP 225, 2-[(2S)-1-Benzyl-5-oxopyrrolidin-2-yl]-N-(cyclopropylmethyl)-2-oxoacetamide] |  |  | > 10000 nM |
| CC(C(=O)C(=O)NCC1CC1)N(C=O)C1CCC(F)(F)CC1 (stereo not shown) [FP 194, N-(Cyclopropylmethyl)-3-[N-(4,4-difluorocyclohexyl)formamido]-2-oxobutanamide] | < 1000 nM |  |  |
| CC(C(=O)C(=O)NCC1CC1)N(CC1CCOCC1)S(C)(=O)=O (stereo not shown) [FP 223, N-(Cyclopropylmethyl)-3-{N-[(oxan-4-yl)methyl]methanesulfonamido}-2-oxobutanamide] | 10000 to 50000 nM |  |  |
| CC(C(=O)C(=O)NCc1cccc(Cl)c1)N(C=O)C1CCCCC1 (stereo not shown) [FP 17, N-[(3-Chlorophenyl)methyl]-3-(N-cyclohexylformamido)-2-oxobutanamide] | < 1000 nM |  |  |
| CC(C(=O)C(=O)NCc1cccc(Cl)c1)N(C=O)Cc1ccccc1 (stereo not shown) [FP 20, 3-(N-Benzylformamido)-N-[(3-chlorophenyl)methyl]-2-oxobutanamide] | < 1000 nM |  |  |
